The results in this text go back to patent US6448224B1, “Antibiotics and methods of using the same” (priority 1998, dated 2002).

Assay [1] deals with clinical isolate A144. Briefly: Growth of clinical isolate A144. The settings on record: 0.1 mM peptide added early in the growth cycle; for 4 hours. It counts as cell-based, pneumococcus. An excerpt: (§1) Tolerance to penicillin occurs in bacteria that fail to trigger autolysins in response to the drug. […] This is a mechanism of resistance to these drugs and is a serious emerging medical problem. […] However, one pneumococcal strain that fails to lyse and dies slowly in response to both penicillin and vancomycin is the clinical isolate A144. This combination of traits makes A144 recalcitrant to therapy. FIG. 8 compares the activity of penicillin, vancomycin, and the peptide against a classical sensitive strain, R6, and the tolerant strain A144. […] In contrast, strain A144 loses only 0.5 logs of viability in the same time period for all three therapies. […] Thereafter the bacteria grew more slowly than untreated controls.

The subject of assay [2] is Lyt 4-4. Briefly: Chain morphology of Lyt 4-4. To be noted: 0.5 mM peptide in the medium. The assay is classed as cell-based, Streptococcus pneumoniae. From the text:
Loss of chain formation is a measure of antibacterial activity independent of autolysin.
Strains of pneumococcus that are tolerant to penicillin, such as Lyt 4-4, grow in long chains as compared to the diplococcal morphology of wild type pneumococci. FIG. 6A illustrates these chains, which extend to 30-50 bacteria in length.

Assay [3] deals with Lyt-4-4 strain of Streptococcus pneumoniae (loss of LytA activity). Briefly: Growth curve (OD 620 nm) of autolysin deficient strain Lyt 4-4. The assay is classed as cell-based. To be noted: 0.1 mM peptide; absence of autolytic activity. As for the experimental part: The addition of the additives were made at time “0” hours. The strain of bacteria cultured was the Lyt-4-4 strain of Streptococcus pneumoniae which harbors a mutation leading to the loss of LytA activity. The peptide having the amino acid sequence of SEQ ID NO:2 was added as indicated at a concentration of 0.1 mM. Lyt-4-4 lacks active autolysin LytA and is therefore tolerant to penicillin treatment.
(§2) Cell growth curves were performed in the presence or absence of the test reagents as specified. In short, samples were prepared as follows: 1 ml of a pneumococcus culture was placed into 10 ml of prewarmed Semisynthetic (C+Y) medium. The optical density (OD) of the bacteria was monitored at 620 nm until an OD of approximately 0.1 was reached. At this point the test reagents were administered to the samples. The cells were cultured for up to 11 hours at 37° Celsius, and the OD at 620 nm was monitored every hour. A decrease in OD 620 is indicative of cell lysis, an increase is indicative of bacterial growth. No change in optical density indicates growth inhibition.
This antibacterial effect was also demonstrable in bacteria mutated so as to prevent autolysis by point mutation in the autolysin, as in the autolysin deficient strain Lyt 4-4.

The subject of assay [4] is pneumococcus R6, non-growing. Briefly: Lysis of R6 cells under starvation conditions (medium lacking lysine). To be noted: 10×MIC penicillin and/or 0.5 mM peptide. It counts as cell-based. From the text:
When bacteria grow slowly or stop growing due to nutrient deprivation, they become tolerant to antibiotics of all classes. […] This prolongs the course of antibiotics needed to treat these infections. For instance, many weeks of therapy are required to treat endocarditis and osteomyelitis secondary to slowly growing bacteria. An in vitro example of phenotypic tolerance is shown in FIG. 10 where pneumococcus R6 has been transferred at time 0 to a medium lacking the essential amino acid lysine. Penicillin was added 5 min after the transfer. […] This same response is seen with the peptide.

The test system of assay [5] is mutant in ORF WI. Briefly: Antibacterial activity of the peptide in mutants: growth inhibition, ORF W1 mutant. It counts as cell-based, S. pneumoniae. To be noted: peptide added from the outside. An excerpt: (§3) To test this hypothesis the ability of the peptide having the amino acid sequence of SEQ ID NO:2 to maintain antibacterial activity in the mutants was examined. […] Furthermore, bacteria which are tolerant by virtue of phenotypic tolerance due to slow growth rate or mutations in genes other than the RR/HK will be susceptible to the antibacterial effect of the peptide.

The subject of assay [6] is clinical isolate A144. Briefly: Cell viability (CFU/ml) of clinical isolate A144 one hour after addition. The assay is classed as cell-based, pneumococcus. To be noted: 10×MIC penicillin, 10×MIC vancomycin or 0.4 mM peptide.
Text: as §1

Assay [7] relates to HK mutant strain Van S. Briefly: Lysis of HK mutant VanS cells. It counts as cell-based, pneumococcus. The settings on record: 10×MIC penicillin and/or 0.5 mM peptide. How it is done:
FIGS. 11A-11B show the effects of 10×MIC of penicillin and/or 0.5 mM of the peptide having the amino acid sequence of SEQ ID NO:2 on the lysis of clinical isolate F79 cells (FIG. 11A) and HK mutant VanS cells (FIG. 11B).
F79 is a natural isolate of pneumococcus with mutations in the HK and the ABC transporter genes as determined by SSCP (see Example 11). This strain is tolerant to penicillin and vancomycin.

In assay [8] the test system is pneumococcal strain R6. Briefly: Cell viability (CFU/ml) of R6, plating on blood agar. The settings on record: 0.1 mM peptide. The assay is classed as cell-based, Streptococcus pneumoniae. How it is done: (§4) The peptide having amino acid sequence SEQ ID NO:2 was chemically synthesized and tested for growth inhibiting, killing and lytic activity in Streptococcus pneumoniae cultures. To characterize the antibacterial activity of the peptide, pneumococcal strain R6 which is sensitive to penicillin was exposed to 0.1 mM of the peptide having the amino acid sequence of SEQ ID NO:2 at an optical density of 0.01 (bacterial density of 3×10^6 cfu/ml). Bacterial growth as measured by optical density was followed for 11 hours and viability was assessed by plating on blood agar. […] Four hours after the start of the experiment, the control strain grew from 3×10^6 to 1.2×10^7 cfu/ml. In contrast, four hours after addition of the peptide, the viable bacterial number decreased from 3×10^6 to 3×10^4 CFU/ml (10^3-fold lower than the control).
as §1

The subject of assay [9] is RR/HK mutants. Briefly: Antibacterial activity of the peptide in mutants: growth inhibition, RR/HK mutants. It counts as cell-based, S. pneumoniae. To be noted: peptide added exogenously.
Text: as §3

In assay [10] the test system is pneumococcal strain R6. Briefly: Cell growth curves (OD 620 nm) of R6 cultures with or without test reagents. It counts as cell-based, Streptococcus pneumoniae. How it is done: as §2, §4
The fact that the peptide is active in the range below 1 μg/ml places the potency of its antibacterial effect in the same range as conventional antibiotics.
R6 with no peptide was the control and underwent exponential growth.

“Also recorded” adds a separate entry of the source.

As for “MRKEFHNVLSSGQLLADKRPARDYN (listed as Streptococcus pneumoniae) [Peptide 1]”, the “growth of strain A144” value in [1] was “significantly inhibits the growth”. Also, the “chain morphology of Lyt 4-4” value in assay [2] (listed as SEQ ID NO.2) is “dissolution of the chains”; in assay [2] (listed as the peptide), “reversion of the chains to diplococci”. Also, in assay [3], the “bactericidal activity in strain Lyt 4-4” value was “demonstrable”. Also, the “lysis response of non-growing R6” value in [4] was “same response”. For the same sequence, the “growth inhibition of the mutant in ORF W1” value in [5] is on record as “not able to inhibit growth”. In addition, the “loss of viability of A144 within one hour” value in assay [6] amounted to 0.5 logs. The “lysis / tolerance of strain Van S” value in [7] was “not responsive”. Besides, the “viable bacterial number lower than the control” value in assay [8] (four hours) is on record as 10^3 fold. The “killing of R6 (FIG. 2B)” value in assay [8] (listed as SEQ ID NO:2) is “kills the bacteria without substantial cell lysis occurring; also recorded: rapidly killed”. Also, the “viable bacterial number four hours after addition of the peptide” value in assay [8] (start 3×10^6, control grew to 1.2×10^7 cfu/ml) is recorded as 3×10^4 CFU/ml. For the same sequence, in assay [9], the “growth inhibition of the RR/HK mutants” value is on record as “did not function to inhibit the growth”. Also, in assay [10] (100 μM peptide added to growing R6 at OD 620 nm of 0.1), the “ability to inhibit R6 growth (FIG. 5)” value is “significant delay in the onset of bacterial growth”. The lysis result in assay [10] (0.1 mM peptide, R6, followed for 11 hours) was “No lysis was detected”. In addition, the “growth of the bacteria (optical density)” value in assay [10] (0.1 mM peptide, R6 at optical density 0.01 (3×10^6 cfu/ml), followed for 11 hours) is on record as “completely inhibited growth”. Also, the “minimum effective concentration (MEC)” value in assay [10] (R6, converted with molecular weight 2940) lay in the range of 0.15 to 0.3 µg/mL; in assay [10] (R6, optical density of the culture over 4 hours) it was 50 to 100 nM. The “dose response of antibacterial activity” value in assay [10] (R6, various amounts of peptide, 4 hours) is recorded as “dose dependent antibacterial activity”.
